Test results taken from the supplement of paper PMC10307832.

How the values were obtained:
Test in all cases: relative viability (nuclei count vs DMSO), 5 days (fraction); higher = more cells survive
Kobe2602 + Luminespib = compound: C1=CC(=CC=C1NC(=S)NNC2=C(C=C(C=C2[N+](=O)[O-])C(F)(F)F)[N+](=O)[O-])F [Kobe2602] + CCNC(=O)c1noc(-c2cc(C(C)C)c(O)cc2O)c1-c1ccc(CN2CCOCC2)cc1 [Luminespib] (partner 0.01 µM)
Method in brief: (§1)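 Lung cancer cell lines were seeded in 1536-well plates and dosed by pin tool the next day, with either a single drug or a fixed anchor-drug dose combined with five library-drug doses (not always all listed) spaced in √10 steps. Five days later, one step fixed the cells and stained their nuclei (final 0.05% Triton X-100, 1% formaldehyde, 1 ug/ml Hoechst), and nuclei were counted on 4× images. Relative viability is the nuclei count in treated wells divided by the count in vehicle wells, and each value is the median of duplicate plates.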

Cabozantinib + Foretinib = compound: COc1cc2nccc(Oc3ccc(NC(=O)C4(C(=O)Nc5ccc(F)cc5)CC4)cc3)c2cc1OC [Cabozantinib] + COc1cc2c(Oc3ccc(NC(=O)C4(C(=O)Nc5ccc(F)cc5)CC4)cc3F)ccnc2cc1OCCCN1CCOCC1 [Foretinib] (partner 0.25 µM)
Method in brief: as §1

Zosuquidar + OSI-027 = compound: O[C@@H](COc1cccc2ncccc12)CN1CCN([C@@H]2c3ccccc3[C@@H]3[C@H](c4ccccc42)C3(F)F)CC1 [Zosuquidar] + COc1cccc2cc(-c3nc([C@H]4CC[C@H](C(=O)O)CC4)n4ncnc(N)c34)[nH]c12 [OSI-027] (partner 0.5 µM)
Method in brief: as §1

Kobe2602 + Pemetrexed = compound: C1=CC(=CC=C1NC(=S)NNC2=C(C=C(C=C2[N+](=O)[O-])C(F)(F)F)[N+](=O)[O-])F [Kobe2602] + Nc1nc2[nH]cc(CCc3ccc(C(=O)N[C@@H](CCC(=O)O)C(=O)O)cc3)c2c(=O)[nH]1 [Pemetrexed] (partner 0.2 µM)
Method in brief: as §1

Cell Line | relative viability (Kobe2602 + Luminespib; first compound 0.2 µM) | relative viability (Kobe2602 + Luminespib; first compound 0.6325 µM) | relative viability (Kobe2602 + Luminespib; first compound 2 µM) | relative viability (Kobe2602 + Luminespib; first compound 6.325 µM) | relative viability (Kobe2602 + Luminespib; first compound 20 µM) | relative viability (Cabozantinib + Foretinib; first compound 0.02 µM) | relative viability (Cabozantinib + Foretinib; first compound 0.06325 µM) | relative viability (Cabozantinib + Foretinib; first compound 0.2 µM) | relative viability (Cabozantinib + Foretinib; first compound 0.6325 µM) | relative viability (Cabozantinib + Foretinib; first compound 2 µM) | relative viability (Zosuquidar + OSI-027; first compound 0.01 µM) | relative viability (Zosuquidar + OSI-027; first compound 0.03162 µM) | relative viability (Zosuquidar + OSI-027; first compound 0.1 µM) | relative viability (Zosuquidar + OSI-027; first compound 0.3162 µM) | relative viability (Zosuquidar + OSI-027; first compound 1 µM) | relative viability (Kobe2602 + Pemetrexed; first compound 0.6325 µM) | relative viability (Kobe2602 + Pemetrexed; first compound 2 µM) | relative viability (Kobe2602 + Pemetrexed; first compound 6.325 µM) | relative viability (Kobe2602 + Pemetrexed; first compound 20 µM) | relative viability (Kobe2602 + Pemetrexed; first compound 0.2 µM)
NCI-H460 | 0.0275 | 0.0348 | 0.0337 | 0.0344 | 0.0251 | 1.03 | 1.04 | 0.93 | 1 | 1.07 | 0.674 | 0.725 | 0.522 | 0.788 | 0.694 | 0.0647 | 0.0722 | 0.0653 | 0.0677 | –
NCI-H1793 | 0.185 | 0.201 | 0.217 | 0.47 | 0.205 | 0.738 | 1.07 | 0.645 | 0.678 | 0.617 | 0.315 | 0.389 | – | 0.287 | 0.311 | 1.04 | 0.781 | 0.903 | 0.875 | 0.732
NCI-H838 | 0.353 | 0.395 | 0.308 | 0.268 | 0.278 | 1.13 | 1.08 | 1.04 | 1.02 | 1.01 | 0.411 | 0.323 | 0.303 | 0.38 | 0.41 | 0.251 | 0.261 | 0.246 | 0.232 | 0.257
NCI-H1734 | 0.196 | 0.175 | 0.167 | 0.187 | 0.173 | 0.916 | 0.864 | 0.878 | 0.858 | 0.769 | 0.587 | 0.612 | 0.541 | 0.697 | 0.662 | 0.419 | 0.422 | 0.418 | 0.398 | 0.445
EKVX | 0.9 | 0.948 | 0.832 | 0.871 | 0.858 | 0.77 | 0.862 | 0.81 | 0.536 | 0.852 | 0.743 | 0.622 | 0.536 | 0.707 | 0.762 | 0.394 | 0.404 | 0.41 | 0.408 | 0.416
NCI-H647 | 0.259 | 0.188 | 0.152 | 0.112 | 0.225 | 1.23 | 1.1 | 1.1 | 1.14 | 0.981 | 0.64 | 0.63 | 0.552 | 0.886 | 0.723 | 0.22 | 0.174 | 0.172 | 0.184 | 0.178
NCI-H2342 | 0.826 | 0.735 | 0.741 | 0.692 | 0.773 | 1.09 | 1.16 | 1.08 | 1.06 | 0.799 | 0.605 | 0.597 | 0.558 | 0.668 | 0.624 | 0.754 | 0.734 | 0.763 | 0.844 | 0.734
LOU-NH91 | 0.387 | 0.338 | 0.326 | 0.367 | 0.331 | 0.89 | 0.997 | – | 0.966 | 0.992 | 0.623 | 0.664 | – | 0.781 | 0.713 | 0.361 | 0.379 | 0.391 | 0.392 | 0.351
COR-L23 | 0.685 | 0.64 | 0.537 | 0.648 | 0.684 | 0.978 | 1.1 | 0.976 | 0.977 | 0.95 | 0.738 | 0.702 | 0.688 | 0.858 | 0.757 | 0.2 | 0.212 | 0.204 | 0.204 | 0.209
NCI-H1437 | 1.12 | 1.11 | 1.1 | 1.14 | 0.984 | 1.29 | 1.37 | 1.29 | 1.27 | 1.21 | 0.865 | 0.889 | 0.765 | 1.12 | 0.871 | 0.317 | 0.313 | 0.298 | 0.295 | 0.303
EPLC-272H | 0.259 | 0.83 | 0.327 | 0.363 | 0.27 | 0.77 | 0.884 | 0.515 | 0.82 | 0.782 | 0.275 | 0.335 | 0.273 | 0.31 | 0.275 | 0.35 | 0.301 | 0.318 | 0.279 | 0.353
ChaGo-K-1 | 0.684 | 0.53 | 0.743 | 0.617 | 0.507 | 0.937 | 1.04 | 0.968 | 0.836 | 0.857 | 0.595 | 0.479 | 0.644 | 0.553 | 0.522 | 0.26 | 0.267 | 0.267 | 0.266 | 0.27
NCI-H1666 | 0.975 | 1.08 | 1 | 1.05 | 1.08 | 1.04 | 1.06 | 0.99 | 0.949 | 0.981 | 0.844 | 0.919 | 0.8 | 0.957 | 0.957 | 0.861 | 1.01 | 0.934 | 0.861 | 0.81
NCI-H441 | 0.328 | 0.374 | 0.327 | 0.358 | 0.296 | 1.25 | 0.989 | 0.986 | 1.18 | 1.18 | 0.667 | 0.666 | 0.519 | 0.828 | 0.585 | 0.217 | 0.244 | 0.279 | 0.288 | 0.285
NCI-H23 | 0.248 | 0.201 | 0.227 | 0.214 | 0.202 | – | 1.03 | 0.989 | 0.904 | 0.836 | 0.644 | 0.636 | 0.525 | 0.705 | 0.641 | 0.8 | 0.82 | 0.584 | 0.742 | 0.653
SW 1573 | 0.202 | 0.212 | 0.21 | 0.458 | 0.0872 | 0.966 | 0.828 | 0.984 | 1.09 | 0.964 | 0.624 | 0.609 | 0.81 | 1 | 0.689 | 0.96 | 0.82 | 0.84 | 0.598 | 0.786
LU99A | 0.281 | 0.29 | 0.227 | 0.2 | 0.343 | 0.805 | 0.922 | 0.906 | 0.784 | 0.838 | 0.279 | 0.276 | 0.253 | 0.322 | 0.288 | 0.169 | 0.186 | 0.207 | 0.163 | 0.179
SK-LU-1 | 0.204 | 0.222 | 0.189 | 0.188 | 0.205 | 0.868 | 1.01 | 0.904 | 0.845 | 0.699 | 0.369 | 0.35 | 0.401 | 0.432 | 0.33 | 0.978 | 1.02 | 0.963 | 0.953 | 0.969
NCI-H2126 | 0.947 | 0.976 | 0.895 | 0.884 | 0.825 | – | 1.36 | 1.22 | 1.06 | 1.17 | 0.736 | 0.982 | – | 0.684 | 0.787 | 0.67 | 0.629 | 0.736 | 0.686 | 0.647
LXF-289 | 0.7 | 0.799 | 0.637 | 0.606 | 0.708 | 0.974 | 1 | 0.934 | 1.02 | 0.993 | 0.744 | 0.862 | 0.741 | 0.856 | 0.915 | 0.896 | 0.88 | 0.861 | 0.896 | 0.871
BEN | 0.507 | 0.576 | 0.386 | 0.481 | 0.436 | 0.595 | 0.79 | 0.708 | 0.787 | 0.387 | 0.31 | 0.297 | 0.288 | 0.301 | 0.313 | 0.803 | 0.724 | 0.846 | 0.98 | 0.736
LCLC-97TM1 | 0.749 | 0.718 | 0.739 | 0.741 | 0.819 | 0.938 | 1.1 | 0.993 | 1.04 | 0.879 | 0.469 | 0.507 | 0.366 | 0.502 | 0.641 | 0.15 | – | 0.14 | 0.161 | 0.204
NCI-H1993 | 0.673 | 0.794 | 0.605 | 0.658 | 0.769 | 0.807 | 0.74 | 0.649 | 0.745 | 0.735 | 0.632 | 0.677 | 0.488 | 0.497 | 0.525 | 0.589 | 0.461 | 0.531 | 0.587 | 0.561
NCI-H596 | 1.03 | 0.922 | 1.03 | 0.844 | 0.873 | 0.89 | 1.09 | 0.9 | 0.906 | 0.777 | 0.714 | – | 0.724 | 1.01 | 0.689 | 0.523 | 0.568 | 0.505 | 0.495 | 0.541
LCLC-103H | 0.908 | 1.03 | 0.935 | 0.913 | 0.765 | 0.909 | 0.695 | 0.778 | 0.745 | 0.756 | 0.474 | 0.469 | 0.402 | 0.478 | 0.528 | 0.502 | 0.454 | 0.438 | 0.449 | 0.494
NCI-H1975 | 0.365 | 0.29 | 0.229 | 0.216 | 0.288 | 1.04 | 1.01 | 1.1 | 0.89 | 0.849 | 0.789 | 0.684 | 0.679 | 0.885 | 0.832 | 0.306 | 0.265 | 0.294 | 0.286 | 0.271
